Data set [1] can be described thus: Antiinflammatory activity in mouse macrophages assessed as inhibition of IFN-gamma-induced nitric oxide production after 48 hrs by Griess method. It is filed as functional, cell-based. To be noted: Macrophage.
The target in data set [2] is NAD(P)H dehydrogenase [quinone] 1 (Mus musculus) (UniProt Q64669). Description: Induction of NQO1 activity in mouse hepatoma cells. It counts as cell-based.
A short description of data set [3]: Cytotoxicity against mouse Hepa-1c1c7 cells after 48 hrs. To be noted: read-out: LD50. It is filed as cell-based.
The target of data set [4] is NAD(P)H dehydrogenase [quinone] 1 (Mus musculus) (UniProt Q64669). Description: Induction of NQO1 activity in mouse Hepa-1c1c7 cells after 48 hrs by Prochaska method. It is filed as cell-based.

This is an account of results in ChEMBL document CHEMBL2429766, “Keap calm, and carry on covalently” (J Med Chem, 2013).

Sequence of NAD(P)H dehydrogenase [quinone] 1 (Mus musculus) (Q64669 whole entry): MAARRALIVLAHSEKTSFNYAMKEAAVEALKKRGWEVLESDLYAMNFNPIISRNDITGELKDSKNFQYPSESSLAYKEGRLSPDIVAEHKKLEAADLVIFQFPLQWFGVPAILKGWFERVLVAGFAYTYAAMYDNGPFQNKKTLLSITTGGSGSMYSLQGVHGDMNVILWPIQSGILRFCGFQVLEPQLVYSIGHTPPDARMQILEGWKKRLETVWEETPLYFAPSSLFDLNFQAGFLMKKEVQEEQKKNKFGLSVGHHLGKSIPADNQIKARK

In the case of `CC1(C)CC[C@]2(C(=O)O)CC[C@]3(C)[C@H](C(=O)C=C4[C@@]5(C)C=C(C#N)C(=O)C(C)(C)[C@@H]5CC[C@]43C)[C@@H]2C1` [BARDOXOLONE], the half-maximal inhibitory concentration (IC50) in data set [1] was 0.0004 µM.

With `CC(O)[C@H]1CC2CC1C[C@@H]2N=C=S` (stereo not given in full), in data set [2], the CD stood at 0.5 µM.

In the case of `COC(=O)[C@H]1CC2CC1C[C@@H]2N=C=S` (stereo not given in full), the CD in data set [2] is 0.7 µM.

As to `N#CCCCCN=C=S`, the CD in data set [2] came to 2 µM.

In turn, `CCCCC(=O)CCCCN=C=S` had a CD in data set [2] of 2 µM.

Consider `CC(=O)[C@H]1CC2CC1C[C@@H]2N=C=S` (stereo not given in full), for which the CD in data set [2] is 0.4 µM.

Regarding `CC1(C)CC[C@]2(C(=O)O)CC[C@]3(C)C(=CC(=O)[C@@H]4[C@@]5(C)C=CC(=O)C(C)(C)[C@@H]5CC[C@]43C)[C@@H]2C1`, the 50% inhibitory concentration (IC50) in data set [1] is 1.4 µM.

Molecule `CS(=O)(=O)[C@@H]1CCC[C@@H](CN=C=S)C1` (relative stereo) had a CD in data set [2] of 0.5 µM.

With `O=[N+]([O-])[C@H]1CC2CC1C[C@@H]2N=C=S` (stereo not given in full), the CD in data set [2] is 1.1 µM.

Turning to `CC[S+]([O-])C(=O)N(CCCC[S+](C)[O-])Cc1ccc(F)cc1F` (stereo not given), in data set [3], the CC50 at 48 h was greater than 50 µM. The same molecule returned a CD in data set [4] of 7.3 µM.

Take `CC(=O)[C@@H]1CC2CC1[C@H](N=C=S)C2` (relative stereo): in data set [2], the CD came out at 0.8 µM.

As for `CSC(=O)CCCCN=C=S`, the CD in data set [2] stood at 2.8 µM.

`COC(=O)CCCCN=C=S` displayed a CD in data set [2] of 2.8 µM.

Turning to `N#C[C@H]1CC2CC1C[C@@H]2N=C=S` (stereo not given in full), in data set [2], the CD was 0.6 µM.

In the case of `CC1(C)CC[C@]2(C(=O)O)CC[C@]3(C)C(=CC[C@@H]4[C@@]5(C)C=CC(=O)C(C)(C)[C@@H]5CC[C@]43C)[C@@H]2C1`, the IC50 in data set [1] came to 7.1 µM.

In the case of `CC1(C)CC[C@]2(C(=O)O)CC[C@]3(C)C(=CC[C@@H]4[C@@]5(C)CC[C@H](O)C(C)(C)[C@@H]5CC[C@]43C)[C@@H]2C1` [OLEANOLIC_ACID], in data set [1], the concentration for half-maximal inhibition (IC50) was greater than 40 µM.

`CS(=O)(=O)[C@@H]1CCC[C@H](CN=C=S)C1` (relative stereo): in data set [2], the CD was 0.4 µM.

In data set [2], `CS(=O)(=O)[C@H]1CC2CC1C[C@@H]2N=C=S` (stereo not given in full) registered a CD of 0.7 µM.

`CS(=O)(=O)[C@@H]1CC2CC1[C@H](N=C=S)C2` (relative stereo): the CD in data set [2] amounted to 1 µM.

In data set [2], `CCCCCCN=C=S` registered a CD of 15 µM.

Take `CP(C)(=O)CCCCN=C=S`: the CD in data set [2] came to 0.4 µM.

As for `CC[S+]([O-])C(=O)N(CCCC[S+](C)[O-])Cc1ccc(-c2ccccc2)cc1` (stereo not given), the CC50 at 48 h in data set [3] amounted to 16 µM. The CD in data set [4] came out at 2.8 µM.

`COC(=O)[C@H]1CC2CC1[C@H](N=C=S)C2` (stereo not given in full) had a CD in data set [2] of 1.6 µM.

As for `CC1(C)CC[C@]2(C(=O)O)CC[C@]3(C)C(=CC[C@H]4C3(C)CC[C@H]3C(C)(C)C(=O)C(O)=C[C@@]34C)[C@@H]2C1` (single isomer, unassigned), the IC50 in data set [1] was found to be 37 µM.

In data set [2], `CC(=O)CCCCN=C=S` showed a CD of 0.2 µM.

`CC[S+]([O-])C(=O)N(CCCC[S+](C)[O-])Cc1cccc2ccccc12` (stereo not given): the CC50 at 48 h in data set [3] was greater than 50 µM. For the same molecule, in data set [4], the CD turned out to be 5.3 µM.

Consider `CS(=O)(=O)[C@H]1CC2CC1[C@H](N=C=S)C2` (relative stereo), for which the CD in data set [2] is 0.2 µM.

Turning to `CC[S+]([O-])C(=O)N(CCCC[S+](C)[O-])Cc1ccccc1` (stereo not given), the CC50 at 48 h in data set [3] is greater than 200 µM. This molecule also returned a CD in data set [4] of 13 µM.

Take `CC1(C)CC[C@]2(C(=O)O)CC[C@]3(C)[C@H](C(=O)C=C4[C@@]5(C)C=CC(=O)C(C)(C)[C@@H]5CC[C@]43C)[C@@H]2C1`: the 50% inhibitory concentration (IC50) in data set [1] was 0.17 µM.

Turning to `C[S@+]([O-])CCCCN=C=S`, in data set [2], the CD was 0.2 µM.

As to `CC[S+]([O-])C(=O)N(CCCC[S+](C)[O-])C1CCCCC1` (stereo not given), the CC50 at 48 h in data set [3] was greater than 200 µM. Moreover, the CD in data set [4] is 64 µM.

As for `CCCN(CCCC[S+](C)[O-])C(=O)[S+]([O-])CC` (stereo not given), the CC50 at 48 h in data set [3] is greater than 200 µM. In addition, the CD in data set [4] is 35 µM.

Consider `O=C(O)CCCCN=C=S`, for which the CD in data set [2] was found to be 2.2 µM.

Regarding `CC[S+]([O-])C(=O)N(C)CCCC[S+](C)[O-]` (stereo not given), in data set [3], the CC50 at 48 h is greater than 200 µM. The CD in data set [4] came to 94 µM.

`O[C@@H]1CC2CC1C[C@@H]2N=C=S` (stereo not given in full) came in with a CD in data set [2] of 19 µM.

With `CC[S+]([O-])C(=O)N(CCCC[S+](C)[O-])C1CC1` (stereo not given), the CC50 at 48 h in data set [3] was greater than 200 µM. This molecule came in with a CD in data set [4] of 43 µM.

`CC(=O)[C@H]1CC2CC1[C@H](N=C=S)C2` (relative stereo) yielded a CD in data set [2] of 0.3 µM.

For the molecule `CC[S+]([O-])C(=O)N(CCCC[S+](C)[O-])Cc1ccc(C(C)(C)C)cc1` (stereo not given), the CC50 at 48 h in data set [3] was 32 µM. Moreover, the CD in data set [4] is 3.8 µM.

For `CS(=O)(=O)[C@H]1CC[C@@H](N=C=S)CC1`, the CD in data set [2] is 0.4 µM.

In the case of `CC[S+]([O-])C(=O)N(CCCC[S+](C)[O-])c1ccccc1` (stereo not given), the CC50 at 48 h in data set [3] is greater than 200 µM. This molecule also had a CD in data set [4] of 43 µM.
